Measured values from patent publication US20260356819A1, “OXOISOINDOLINYL-SUBSTITUTED […] DERIVATIVE AND USE THEREOF” (GLUETACS THERAPEUTICS (SHANGHAI) CO., LTD., priority 2023, published 2026).

Key:
Format in all cases: cell-based
Details in all cases: compounds at 50 nM and 500 nM
WEE1 = target: T1, WEE1 (Homo sapiens, UniProt P30291+Q96SW2); experiment: Western blot degradation of WEE1 in hPBMCs (24 h)
T1 construct: The supernatant was aspirated as the extracted total cell protein; endogenous in cells; host or cells: human peripheral blood mononuclear cells (hPBMCs)
T1 sequence (P30291 whole entry): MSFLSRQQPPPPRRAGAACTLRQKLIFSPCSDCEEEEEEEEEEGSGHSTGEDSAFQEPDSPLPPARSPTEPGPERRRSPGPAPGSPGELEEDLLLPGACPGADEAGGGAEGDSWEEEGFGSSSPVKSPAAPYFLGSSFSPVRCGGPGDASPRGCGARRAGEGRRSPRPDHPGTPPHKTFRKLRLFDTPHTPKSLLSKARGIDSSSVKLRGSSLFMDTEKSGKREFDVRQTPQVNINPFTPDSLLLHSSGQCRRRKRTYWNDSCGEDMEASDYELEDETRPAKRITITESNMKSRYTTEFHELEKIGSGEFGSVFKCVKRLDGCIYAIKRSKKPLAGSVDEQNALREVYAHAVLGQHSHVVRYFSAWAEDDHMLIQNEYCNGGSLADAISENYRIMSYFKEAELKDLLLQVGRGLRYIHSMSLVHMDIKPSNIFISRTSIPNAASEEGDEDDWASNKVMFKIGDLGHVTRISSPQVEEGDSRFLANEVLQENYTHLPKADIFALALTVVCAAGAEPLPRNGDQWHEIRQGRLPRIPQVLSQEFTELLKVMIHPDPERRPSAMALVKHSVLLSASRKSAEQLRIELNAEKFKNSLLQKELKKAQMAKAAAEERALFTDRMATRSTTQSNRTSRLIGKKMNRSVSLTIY
T1 sequence (Q96SW2 whole entry): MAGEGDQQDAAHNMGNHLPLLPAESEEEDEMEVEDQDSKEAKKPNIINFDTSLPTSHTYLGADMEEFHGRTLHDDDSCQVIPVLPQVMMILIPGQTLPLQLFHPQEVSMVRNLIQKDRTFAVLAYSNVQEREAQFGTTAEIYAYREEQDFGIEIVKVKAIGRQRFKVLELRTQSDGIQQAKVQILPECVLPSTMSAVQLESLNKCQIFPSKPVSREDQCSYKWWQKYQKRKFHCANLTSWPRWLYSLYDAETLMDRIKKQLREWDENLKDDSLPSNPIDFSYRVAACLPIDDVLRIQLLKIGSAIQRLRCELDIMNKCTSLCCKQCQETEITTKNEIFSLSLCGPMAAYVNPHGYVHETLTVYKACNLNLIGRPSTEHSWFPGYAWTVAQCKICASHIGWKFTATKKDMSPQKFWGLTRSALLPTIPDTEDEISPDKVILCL
T1 sequence (Q16531 whole entry partner): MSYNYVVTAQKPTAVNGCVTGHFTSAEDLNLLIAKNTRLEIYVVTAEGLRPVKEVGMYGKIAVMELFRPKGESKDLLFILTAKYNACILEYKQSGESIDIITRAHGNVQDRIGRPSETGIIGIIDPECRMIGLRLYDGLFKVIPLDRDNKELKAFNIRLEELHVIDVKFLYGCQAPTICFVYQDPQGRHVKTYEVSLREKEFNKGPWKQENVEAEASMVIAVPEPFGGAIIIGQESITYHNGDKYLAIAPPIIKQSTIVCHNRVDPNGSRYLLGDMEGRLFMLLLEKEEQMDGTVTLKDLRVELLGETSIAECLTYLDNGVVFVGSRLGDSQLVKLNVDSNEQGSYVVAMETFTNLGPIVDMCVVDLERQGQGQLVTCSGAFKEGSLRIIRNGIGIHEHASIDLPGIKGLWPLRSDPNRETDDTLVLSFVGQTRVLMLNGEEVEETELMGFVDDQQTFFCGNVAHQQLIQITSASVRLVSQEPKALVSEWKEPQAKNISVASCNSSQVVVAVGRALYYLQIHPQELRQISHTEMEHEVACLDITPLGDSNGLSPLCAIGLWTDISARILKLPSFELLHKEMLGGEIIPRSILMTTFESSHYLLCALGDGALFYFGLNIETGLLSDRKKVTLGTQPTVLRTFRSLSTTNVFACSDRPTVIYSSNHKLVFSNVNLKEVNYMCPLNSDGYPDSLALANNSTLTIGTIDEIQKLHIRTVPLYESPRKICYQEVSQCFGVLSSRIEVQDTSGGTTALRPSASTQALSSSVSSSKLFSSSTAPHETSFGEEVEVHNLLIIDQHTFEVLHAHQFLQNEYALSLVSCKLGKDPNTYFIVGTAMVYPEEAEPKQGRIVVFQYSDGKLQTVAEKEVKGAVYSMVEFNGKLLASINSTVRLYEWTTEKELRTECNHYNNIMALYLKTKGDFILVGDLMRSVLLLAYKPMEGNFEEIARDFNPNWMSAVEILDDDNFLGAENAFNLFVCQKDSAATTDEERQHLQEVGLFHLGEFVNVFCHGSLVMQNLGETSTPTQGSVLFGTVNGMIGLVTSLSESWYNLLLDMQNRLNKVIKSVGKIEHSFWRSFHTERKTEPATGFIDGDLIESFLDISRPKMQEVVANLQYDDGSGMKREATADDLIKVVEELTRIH
Procedure, shortened: (§1)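 Western blot densitometry after 24 h treatment of human PBMCs (1×10^6 cells/mL) with 50 nM or 500 nM compound. Remaining target (%) = band intensity over internal-control band, normalized to DMSO; degradation = 1 − remaining; DC50 is the concentration giving half the DMSO band signal.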

IKZF1 = target: T2, IKZF1 (Homo sapiens, UniProt Q13422+Q96SW2); experiment: Western blot degradation of IKZF1 in hPBMCs (24 h)
T2 construct: The supernatant was aspirated as the extracted total cell protein; endogenous in cells; host or cells: human peripheral blood mononuclear cells (hPBMCs)
T2 sequence (Q13422 whole entry): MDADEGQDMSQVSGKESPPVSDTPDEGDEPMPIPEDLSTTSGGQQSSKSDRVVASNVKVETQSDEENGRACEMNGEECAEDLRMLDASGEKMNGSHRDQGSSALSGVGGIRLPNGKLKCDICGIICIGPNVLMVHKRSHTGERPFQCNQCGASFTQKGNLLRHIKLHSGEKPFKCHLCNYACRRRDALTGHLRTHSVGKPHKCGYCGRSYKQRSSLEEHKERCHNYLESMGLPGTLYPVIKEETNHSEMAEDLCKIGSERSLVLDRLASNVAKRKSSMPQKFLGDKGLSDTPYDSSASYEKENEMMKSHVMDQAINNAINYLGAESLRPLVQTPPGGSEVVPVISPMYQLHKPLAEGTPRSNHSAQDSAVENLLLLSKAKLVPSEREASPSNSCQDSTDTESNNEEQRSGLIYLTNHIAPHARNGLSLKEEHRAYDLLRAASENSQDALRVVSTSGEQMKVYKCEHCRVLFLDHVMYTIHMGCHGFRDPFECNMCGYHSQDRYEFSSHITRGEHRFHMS
T2 sequence (Q96SW2 whole entry): as the sequence (Q96SW2 whole entry) above
T2 sequence (Q16531 whole entry partner): as the sequence (Q16531 whole entry partner) above
Procedure, shortened: as §1

CK1α = target: T3, CK1α (Homo sapiens, UniProt P48729+Q96SW2); experiment: Western blot degradation of CK1α in hPBMCs (24 h)
T3 construct: The supernatant was aspirated as the extracted total cell protein; endogenous in cells; host or cells: human peripheral blood mononuclear cells (hPBMCs)
T3 sequence (P48729 whole entry): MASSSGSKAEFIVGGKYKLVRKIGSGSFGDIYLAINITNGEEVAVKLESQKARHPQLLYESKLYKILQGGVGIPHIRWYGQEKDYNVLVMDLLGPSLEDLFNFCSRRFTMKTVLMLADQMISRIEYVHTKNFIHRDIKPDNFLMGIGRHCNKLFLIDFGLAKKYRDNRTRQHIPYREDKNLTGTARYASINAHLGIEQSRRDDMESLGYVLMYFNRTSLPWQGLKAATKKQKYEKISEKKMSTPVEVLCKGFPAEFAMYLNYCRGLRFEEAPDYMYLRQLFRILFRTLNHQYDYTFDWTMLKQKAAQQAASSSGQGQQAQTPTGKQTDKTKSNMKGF
T3 sequence (Q96SW2 whole entry): as the sequence (Q96SW2 whole entry) above
T3 sequence (Q16531 whole entry partner): as the sequence (Q16531 whole entry partner) above
Procedure, shortened: as §1

GSPT1 = target: T4, GSPT1 (Homo sapiens, UniProt P15170+Q96SW2); experiment: Western blot degradation of GSPT1 in hPBMCs (24 h)
T4 construct: The supernatant was aspirated as the extracted total cell protein; endogenous in cells; host or cells: human peripheral blood mononuclear cells (hPBMCs)
T4 sequence (P15170 whole entry): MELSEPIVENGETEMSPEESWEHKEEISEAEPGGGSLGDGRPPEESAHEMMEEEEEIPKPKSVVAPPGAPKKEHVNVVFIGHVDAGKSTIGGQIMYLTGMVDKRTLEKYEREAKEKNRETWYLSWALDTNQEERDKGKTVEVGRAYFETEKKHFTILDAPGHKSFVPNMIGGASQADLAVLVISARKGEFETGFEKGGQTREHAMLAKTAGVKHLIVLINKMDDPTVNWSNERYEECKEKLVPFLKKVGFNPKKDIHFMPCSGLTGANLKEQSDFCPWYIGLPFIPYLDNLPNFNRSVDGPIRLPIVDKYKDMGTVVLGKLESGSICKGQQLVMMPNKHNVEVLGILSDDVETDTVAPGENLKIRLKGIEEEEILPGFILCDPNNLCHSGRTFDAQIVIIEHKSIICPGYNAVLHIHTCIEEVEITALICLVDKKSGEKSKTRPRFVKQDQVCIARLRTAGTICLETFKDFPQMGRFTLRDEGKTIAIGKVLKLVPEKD
T4 sequence (Q96SW2 whole entry): as the sequence (Q96SW2 whole entry) above
T4 sequence (Q16531 whole entry partner): as the sequence (Q16531 whole entry partner) above
Procedure, shortened: as §1

IKZF3 = target: T5, IKZF3 (Homo sapiens, UniProt Q96SW2+Q9UKT9); experiment: Western blot degradation of IKZF3 in hPBMCs (24 h)
T5 construct: The supernatant was aspirated as the extracted total cell protein; endogenous in cells; host or cells: human peripheral blood mononuclear cells (hPBMCs)
T5 sequence (Q9UKT9 whole entry): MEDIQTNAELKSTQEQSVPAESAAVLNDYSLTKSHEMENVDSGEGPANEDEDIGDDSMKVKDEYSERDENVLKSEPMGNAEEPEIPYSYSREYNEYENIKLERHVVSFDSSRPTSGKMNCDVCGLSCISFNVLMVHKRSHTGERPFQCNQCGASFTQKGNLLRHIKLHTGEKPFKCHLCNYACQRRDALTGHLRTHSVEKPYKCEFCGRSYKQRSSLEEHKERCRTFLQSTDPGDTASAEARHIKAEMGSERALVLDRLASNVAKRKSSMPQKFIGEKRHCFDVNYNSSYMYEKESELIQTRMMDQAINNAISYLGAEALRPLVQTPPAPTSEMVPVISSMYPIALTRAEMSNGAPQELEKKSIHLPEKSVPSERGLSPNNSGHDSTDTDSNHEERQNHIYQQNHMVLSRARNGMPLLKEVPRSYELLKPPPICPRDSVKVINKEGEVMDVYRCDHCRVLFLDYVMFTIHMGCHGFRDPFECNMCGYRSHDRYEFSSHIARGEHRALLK
T5 sequence (Q96SW2 whole entry): as the sequence (Q96SW2 whole entry) above
T5 sequence (Q16531 whole entry partner): as the sequence (Q16531 whole entry partner) above
Procedure, shortened: as §1

IKZF2 = target: T6, IKZF2 (Homo sapiens, UniProt Q96SW2+Q9UKS7); experiment: Western blot degradation of IKZF2 in hPBMCs (24 h)
T6 construct: The supernatant was aspirated as the extracted total cell protein; endogenous in cells; host or cells: human peripheral blood mononuclear cells (hPBMCs)
Procedure, shortened: as §1

Structure (SMILES) | WEE1 substrate protein remaining % (WEE1) | IKZF1 substrate protein remaining % (IKZF1) | CK1α substrate protein remaining % (CK1α) | GSPT1 substrate protein remaining % (GSPT1) | IKZF3 substrate protein remaining % (IKZF3) | IKZF2 substrate protein remaining % (IKZF2)
O=C1CCN(N2Cc3cc(CN4CCC(c5ncc6ccsc6n5)CC4)ccc3C2=O)C(=O)N1 [GT-08115, 1-(1-oxo-5-((4-(thieno[2,3-d]pyrimidin-2-yl)piperidin-1-yl)methyl)isoindolin-2-yl)dihydropyrimidine-2,4(1H,3H)-dione] | B (80%< substrate protein remaining % ≤100%) | B (80%< substrate protein remaining % ≤100%) | A (0% ≤ substrate protein remaining % ≤80%) | A (0% ≤ substrate protein remaining % ≤80%) | B (80%< substrate protein remaining % ≤100%) | B (80%< substrate protein remaining % ≤100%)
O=C1CCN(N2Cc3cc(CN4CC=C(c5ncnc6sccc56)CC4)ccc3C2=O)C(=O)N1 [GT-08116, 1-(1-oxo-5-((4-(thieno[2,3-d]pyrimidin-4-yl)-3,6-dihydropyridin-1(2H)-yl)methyl)isoindolin-2-yl)dihydropyrimidine-2,4(1H,3H)-dione] | A (0% ≤ substrate protein remaining % ≤80%) | A (0% ≤ substrate protein remaining % ≤80%) | A (0% ≤ substrate protein remaining % ≤80%) | A (0% ≤ substrate protein remaining % ≤80%) | A (0% ≤ substrate protein remaining % ≤80%) | B (80%< substrate protein remaining % ≤100%)
Cc1csc2ncnc(C3=CCN(Cc4ccc5c(c4)CN(N4CCC(=O)NC4=O)C5=O)CC3)c12 [GT-08117, 1-(5-((4-(5-methylthieno[2,3-d]pyrimidin-4-yl)-3,6-dihydropyridin-1(2H)-yl)methyl)-1-oxoisoindolin-2-yl)dihydropyrimidine-2,4(1H,3H)-dione] | B (80%< substrate protein remaining % ≤100%) | B (80%< substrate protein remaining % ≤100%) | A (0% ≤ substrate protein remaining % ≤80%) | A (0% ≤ substrate protein remaining % ≤80%) | A (0% ≤ substrate protein remaining % ≤80%) | B (80%< substrate protein remaining % ≤100%)
O=C1CCN(N2Cc3cc(CN4CCC(c5cccc(F)c5F)CC4)ccc3C2=O)C(=O)N1 [GT-08194, 1-(5-((4-(2,3-difluorophenyl)piperidin-1-yl)methyl)-1-oxoisoindolin-2-yl)dihydropyrimidine-2,4(1H,3H)-dione] | B (80%< substrate protein remaining % ≤100%) | A (0% ≤ substrate protein remaining % ≤80%) | B (80%< substrate protein remaining % ≤100%) | A (0% ≤ substrate protein remaining % ≤80%) | B (80%< substrate protein remaining % ≤100%) | B (80%< substrate protein remaining % ≤100%)
O=C1CCN(N2C(=O)c3ccc(CN4CCC(c5ncnc6sc7c(c56)CCCC7)CC4)cc3C2=O)C(=O)N1 [GT-08424, 2-(2,4-dioxotetrahydropyrimidin-1(2H)-yl)-5-((4-(5,6,7,8-tetrahydrobenzo[4,5]thieno[2,3-d]pyrimidin-4-yl)piperidin-1-yl)methyl)isoindoline-1,3-dione] | B (80%< substrate protein remaining % ≤100%) | B (80%< substrate protein remaining % ≤100%) | A (0% ≤ substrate protein remaining % ≤80%) | A (0% ≤ substrate protein remaining % ≤80%) | B (80%< substrate protein remaining % ≤100%) | B (80%< substrate protein remaining % ≤100%)
O=C1CCN(N2C(=O)c3ccc(CN4CCC(c5ncc6ccsc6n5)CC4)cc3C2=O)C(=O)N1 [GT-08427, 2-(2,4-dioxotetrahydropyrimidin-1(2H)-yl)-5-((4-(thieno[2,3-d]pyrimidin-2-yl)piperidin-1-yl)methyl)isoindoline-1,3-dione] | A (0% ≤ substrate protein remaining % ≤80%) | B (80%< substrate protein remaining % ≤100%) | B (80%< substrate protein remaining % ≤100%) | B (80%< substrate protein remaining % ≤100%) | B (80%< substrate protein remaining % ≤100%) | A (0% ≤ substrate protein remaining % ≤80%)
Cc1csc2ncnc(C3=CCN(Cc4ccc5c(c4)C(=O)N(N4CCC(=O)NC4=O)C5=O)CC3)c12 [GT-08428, 2-(2,4-dioxotetrahydropyrimidin-1(2H)-yl)-5-((4-(5-methylthieno[2,3-d]pyrimidin-4-yl)-3,6-dihydropyridin-1(2H)-yl)methyl)isoindoline-1,3-dione] | A (0% ≤ substrate protein remaining % ≤80%) | B (80%< substrate protein remaining % ≤100%) | B (80%< substrate protein remaining % ≤100%) | B (80%< substrate protein remaining % ≤100%) | A (0% ≤ substrate protein remaining % ≤80%) | A (0% ≤ substrate protein remaining % ≤80%)
O=C1CCN(N2C(=O)c3ccc(CN4CC=C(c5ncnc6sc(-c7ccccc7)cc56)CC4)cc3C2=O)C(=O)N1 [GT-08430, 2-(2,4-dioxotetrahydropyrimidin-1(2H)-yl)-5-((4-(6-phenylthieno[2,3-d]pyrimidin-4-yl)-3,6-dihydropyridin-1(2H)-yl)methyl)isoindoline-1,3-dione] | A (0% ≤ substrate protein remaining % ≤80%) | B (80%< substrate protein remaining % ≤100%) | B (80%< substrate protein remaining % ≤100%) | B (80%< substrate protein remaining % ≤100%) | B (80%< substrate protein remaining % ≤100%) | B (80%< substrate protein remaining % ≤100%)
O=C1CCN(N2C(=O)c3ccc(CN4CC=C(c5ncnc6scc(-c7ccccc7)c56)CC4)cc3C2=O)C(=O)N1 [GT-08431, 2-(2,4-dioxotetrahydropyrimidin-1(2H)-yl)-5-((4-(5-phenylthieno[2,3-d]pyrimidin-4-yl)-3,6-dihydropyridin-1(2H)-yl)methyl)isoindoline-1,3-dione] | A (0% ≤ substrate protein remaining % ≤80%) | B (80%< substrate protein remaining % ≤100%) | B (80%< substrate protein remaining % ≤100%) | B (80%< substrate protein remaining % ≤100%) | B (80%< substrate protein remaining % ≤100%) | A (0% ≤ substrate protein remaining % ≤80%)
Cc1nc(C2=CCN(Cc3ccc4c(c3)C(=O)N(N3CCC(=O)NC3=O)C4=O)CC2)c2c3c(sc2n1)CCCC3 [GT-08432, 2-(2,4-dioxotetrahydropyrimidin-1(2H)-yl)-5-((4-(2-methyl-5,6,7,8-tetrahydrobenzo[4,5]thieno[2,3-d]pyrimidin-4-yl)-3,6-dihydropyridin-1(2H)-yl)methyl)isoindoline-1,3-dione] | B (80%< substrate protein remaining % ≤100%) | B (80%< substrate protein remaining % ≤100%) | A (0% ≤ substrate protein remaining % ≤80%) | A (0% ≤ substrate protein remaining % ≤80%) | A (0% ≤ substrate protein remaining % ≤80%) | B (80%< substrate protein remaining % ≤100%)
O=C1CCN(N2C(=O)c3ccc(CN4CC=C(c5ncnc6sc7c(c56)CCCC7)CC4)cc3C2=O)C(=O)N1 [GT-08433, 2-(2,4-dioxotetrahydropyrimidin-1(2H)-yl)-5-((4-(5,6,7,8-tetrahydrobenzo[4,5]thieno[2,3-d]pyrimidin-4-yl)-3,6-dihydropyridin-1(2H)-yl)methyl)isoindoline-1,3-dione] | B (80%< substrate protein remaining % ≤100%) | B (80%< substrate protein remaining % ≤100%) | A (0% ≤ substrate protein remaining % ≤80%) | A (0% ≤ substrate protein remaining % ≤80%) | A (0% ≤ substrate protein remaining % ≤80%) | B (80%< substrate protein remaining % ≤100%)
O=C1CCN(N2C(=O)c3ccc(CN4CC=C(c5ncnc6sc7c(c56)CCC7)CC4)cc3C2=O)C(=O)N1 [GT-08434, 5-((4-(6,7-dihydro-5H-cyclopenta[4,5]thieno[2,3-d]pyrimidin-4-yl)-3,6-dihydropyridin-1(2H)-yl)methyl)-2-(2,4-dioxotetrahydropyrimidin-1(2H)-yl)isoindoline-1,3-dione] | B (80%< substrate protein remaining % ≤100%) | A (0% ≤ substrate protein remaining % ≤80%) | A (0% ≤ substrate protein remaining % ≤80%) | A (0% ≤ substrate protein remaining % ≤80%) | A (0% ≤ substrate protein remaining % ≤80%) | A (0% ≤ substrate protein remaining % ≤80%)
